According to patent US9572816B2, “Method of treatment of disease” (TECHNION RESEARCH AND DEVELOPMENT FOUNDATION LTD., priority 2012, dated 2017):

How the values were obtained:
[1] = system: rat model of STZ-induced diabetes; experiment: Cataract by lens opacity (slit-lamp biomicroscope) in rat model of STZ-induced diabetes; type: in vivo, Sprague Dawley rats; details: 7 weeks
Procedure: (§1) Eight to ten-week old male Sprague Dawley rats were used in the model. Rat handling was performed according to guidelines of the National Institute of Health (NIH) and the Association for Assessment and Accreditation of Laboratory Animal Care (AAALAC). Diabetes was induced by intraperitoneal injection of 50 mg/kilogram (mg/kg) STZ (in 0.1 molar citrate buffer), which is a dose generally sufficient to destroy all insulin-producing beta cells and induce a diabetic disease-like state. Two weeks later, glucose levels were measured and rats displaying a level lower than 200 mg per deciliter (dL) were excluded from the study. The remaining rats were randomly divided into 3 groups (according to body weight and serum glucose levels): a control group, a corrole group and an LPA group. Each group received a 7-week course of treatment. The control group (13 rats) received water with no active ingredient. The corrole group (14 rats) received 20 mg/kg/day of the corrole designated 1-Fe. 1-Fe was synthesized using the procedure described in Mahammed et al. (Mahammed, Goldberg, & Gross, 2001). […]
Cataract was evaluated a day before termination of the trial in live rats by measurement of opacities of the rat's lenses of each eye with a slit-lamp biomicroscope following the application of tropicamide eye drops. […]
A rat having a score in at least one eye of 1 or higher was considered to have developed a cataract. The percentage of rats in each group having a cataract (cataract incidence) as determined by opacity measurements for each group is shown in FIG. 1A. […]
The degree of cataract for both eyes as determined by averaging each group's cataract scoring of both eyes of each rat as determined by opacity measurement is shown in FIG. 1B.
As cataract may develop at a different rate in each of the animals' eyes, the degree of cataract for the rats' worse eye was evaluated. The degree of cataract for the rats' worse eye was determined by averaging each group's cataract scoring of each animal's worse eye as determined by opacity measurement, and is shown in FIG. 1C. […]

[2] = Body weight in rat model of STZ-induced diabetes; type: in vivo, Sprague Dawley rats; details: STZ-diabetic rats, 7-week treatment
Procedure: as §1, with “2001). The LPA group (13 rats) received 50 mg/kg/day LPA. LPA was formulated for administration by dissolving in 1 millimolar sodium hydroxide (NaOH) which was then brought to a pH of 7.5.” for “2001).”

[3] = system: rat model of STZ-induced diabetes; experiment: Creatinine clearance rate (CrCl), kidney damage in rat model of STZ-induced diabetes; type: in vivo; details: after 7 weeks of treatment
Procedure: as §1, with “treatment.” for “treatment. The control group (13 rats) received water with no active ingredient. The corrole group (14 rats) received 20 mg/kg/day of the corrole designated 1-Fe. 1-Fe was synthesized using the procedure described in Mahammed et al. (Mahammed, Goldberg, & Gross, 2001).”
A rat model was performed as in example 1, but rather than testing for eye damage, blood testing was used to test for creatinine levels. […] Creatinine clearance rate (CrCl), an established measure for evaluating renal function, was calculated for rats in all groups of the trial by dividing the amount of creatinine in the urine (mg/minute) by its concentration in the serum (mg/ml).
CrCl was measured: a) before induction of diabetes; b) 2 weeks later when the treatment commenced; and c) following 7 weeks of treatment (9 weeks from STZ injection).

[4] = system: rat model of STZ-induced diabetes; experiment: Cataractous damage by histological examination (H&E) of lenses in rat model of STZ-induced diabetes; type: in vivo, Sprague Dawley rats; details: 7 weeks
Procedure: as §1, with “treatment.” for “treatment. The control group (13 rats) received water with no active ingredient. The corrole group (14 rats) received 20 mg/kg/day of the corrole designated 1-Fe. 1-Fe was synthesized using the procedure described in Mahammed et al. (Mahammed, Goldberg, & Gross, 2001).”
The development of cataractous damage was further evaluated by histological examination. […]
A rat having a score in at least one eye of 1 or higher was considered to have suffered a cataractous damage. The percentage of rats in each group having a cataractous damage (cataract damage incidence) as determined by histological examination of lenses for each group is shown in FIG. 1D.
The degree of cataractous damage for both eyes as determined by averaging each group's cataract scoring of both eyes of each rat as determined by histological examination is shown in FIG. 1E. […]

development of cataract = details: clinical studies, reported in the literature; cited from earlier work
DN in a rat model = details: administered in levels sufficient to be present in the kidney; cited from earlier work

In the case of `O=C(O)CCCCC1CCSS1` (stereo not drawn) [LPA, alpha lipoic acid], the “Reduction in degree of cataract, both eyes (opacity score 0-4), relative to control group” value ([1]; 1-Fe 20 mg/kg/day (p=0.014), LPA 50 mg/kg/day (p=0.1)) is reported as 28%, the “Degree of cataract in worse eye relative to control group (in words)” value ([1]; LPA 50 mg/kg/day) is reported as “not significantly reduced” and the “Effect on cataract incidence (opacity measurement)” value ([1]; relative to control group, LPA 50 mg/kg/day) is reported as “did not have a significant effect”. The “Body weight change during the treatment phase” value [2] was “significant weight loss”, the CrCl ([3]; STZ-diabetic rats, 1-Fe 20 mg/kg/day, LPA 50 mg/kg/day) was 1.36 mL/min and the “Increase in creatinine clearance relative to the control group” value ([3]; 1-Fe p=0.027, LPA p=0.078) was 89%. For the same compound, the “Reduction in degree of cataractous damage, both eyes (histology score 0-4), relative to control group” value ([4]; 1-Fe 20 mg/kg/day, LPA 50 mg/kg/day) was 32% and the “Cataract damage incidence by histological examination, relative to control group” value ([4]; corrole p=0.073) was “minimal”.

For `CC1=C(/C=C/C(C)=C/C=C/C(C)=C/C=C/C=C(C)/C=C/C=C(C)/C=C/C2=C(C)CCCC2(C)C)C(C)(C)CCC1` [beta-carotene], the “Effect on the development of cataract” value (development of cataract) is given as “no significant effect”.

In the case of `COc1cc(/C=C/C(=O)CC(=O)/C=C/c2ccc(O)c(OC)c2)ccc1O` [curcumin], the “Treating DN in a rat model” value (DN in a rat model) is listed as “not successful”.

In the case of `O=C1O[C@H]([C@@H](O)CO)C(O)=C1O` [vitamin C], the “Effect on the development of cataract” value (development of cataract) is given as “no significant effect”.

In the case of vitamin E, the “Effect on the development of cataract” value (development of cataract) is given as “no significant effect”.
